Data set [1] has as its system phytohaemagglutinin stimulated lymphocytes. Kind of data set: Lymphocyte steroid sensitivity (Imax) with and without basiliximab, 32 subjects (Example 2). It counts as cell-based, human. Conditions: 32 subjects on 41 occasions; basiliximab 1 mg/L where added. As for the experimental part:
Peripheral blood lymphocytes are isolated from 32 subjects (25 healthy volunteers and 7 patients with quiescent Ulcerative Colitis), on 41 occasions, using buoyant density centrifugation. Lymphocyte steroid sensitivity is assessed by measuring the antiproliferative effect of dexamethasone (DEX) on phytohaemagglutinin stimulated lymphocytes. Maximum steroid induced suppression is expressed as a % of control lymphocyte proliferation (Imax). Imax is measured in the absence and presence of basiliximab (1 mg/L).

Data set [2] deals with PHA-stimulated lymphocytes. Description: Lymphocyte steroid sensitivity: dexamethasone inhibition of PHA-stimulated proliferation with and without basiliximab (Example 1). It counts as cell-based, human. The conditions noted are these: for Steroid-sensitive (SS) or Steroid-resistant (SR): class by Imax with dexamethasone alone; for PHA-stimulated lymphocyte proliferation (cpm): dexamethasone 10^-6 mol/l; for PHA-stimulated lymphocyte proliferation (cpm) / % suppression / Imax (%): basiliximab 1 mg/l where added; for % suppression: dexamethasone 10^-7 mol/l; for Imax (%): inhibition of proliferation at dexamethasone 10^-6 mol/l. As for the experimental part: Measurement of lymphocyte steroid sensitivity: The sensitivity of peripheral blood lymphocytes to glucocorticoids is assessed in a functional assay i.e. an in vitro proliferation assay stimulated by phytohaemagglutinin (PHA) and inhibited by dexamethasone. (Hearing S D, et al. Gut 1999; 45:382-8; Hearing S D, et al. J Clin Endocrinol Metab 1999; 84:4149-54). Peripheral blood samples are collected at 09:00 hours, and peripheral blood mononuclear cells (PBMC) are separated by buoyancy centrifugation. Buoyancy centrifugation includes the separation of lymphocytes from the blood sample by centrifugation over a ficol gradient. Ficol allows red blood cells to fall through, but prevents the through-movement of lymphocytes. Peripheral blood mononuclear cells (lymphocytes and marocyes) are collected from the ficol/plasma interface. PBMC proliferation is stimulated with PHA and inhibited with dexamethasone at serial 10 fold dilutions between 10^−6 and 10^−10 mol/1. i.e. 10^−6, 10^−7, 10^−8, 10^−9, 10^−10 mol/1. Cell proliferation is measured by tritiated thymidine uptake i.e. after 2 days of incubation, radioisotape labelled thymidine (^3H-thymidine) is added to the lymphocyte culture medium and became incorporated into the DNA of proliferating lymphocyes. After 6 hours the cells are transferred from the incubator and collected on a filter mat using a cell harvester. The cells are then washed out of the well. The lymphocyte DNA that has incorporated the thymidine is trapped in the filter paper. When radioactivity levels are measured the wells which contain high numbers of actively proliferating lymphocytes (and thus will have incorporated lots of thymidine into the DNA) will have high radioactivity levels. […] The results are calculated as mean counts per minute (cpm) of triplicate cultures. Thymidine incorporation for each concentration of dexamethasone is compared to that of PHA stimulated T lymphocytes in the absence of dexamethasone, and expressed as a percentage of the uninhibited positive control. The effect of different concentrations of basiliximab on lymphocyte proliferation is also studied. In addition, an equal concentration of basiliximab is added to each cell culture medium at all concentrations of dexamethasone and the antiproliferative effect measured.
Effect of […]® on steroid sensitivity: For all eight subjects, PHA-stimulated lymphocytes are cultured in the presence of increasing concentrations of dexamethasone (10^−10-10^−6 mol/l) in the presence and absence of basiliximab (1 mg/l). In previous studies of ulcerative colitis carried out by the inventor, maximal suppression (Imax)<60% correlated with a poor response to steroid therapy (clinical steroid resistance). The exact value of Imax cannot be measured as it is the inhibition at an infinitely high level of dexamethasone. Thus, the percentage inhibition of proliferation observed at the maximum dexamethasone concentration applied (10^−6 mol/l) is used as the measure of Imax. In practice, there is good agreement between Imax and the estimated asymptotic value for maximal inhibition obtained from dose-response curves (Hearing S D et al (1999) Clin. Endoctrinol. Metab 84:4149-54). A concentration of dexamethasone of 10^−7 mol/l is approximately equivalent in terms of glucocorticoid activity to the serum concentrations of hydrocortisone achieved with intravenous therapy at standard doses. Thus, to make comparisons with the potential effect of basiliximab in vivo, the steroid sensitising effect of basiliximab at this concentration of dexamethasone may also be of interest. […] The subjects are shown in decreasing order of steroid sensitivity (with the most sensitive on the left).

The subject of another data set is steroid-resistant asthma. The conditions noted are these: after 8 weeks; cited from earlier work.
For data set [3], the system named is peripheral blood lymphocytes. The conditions noted are these: high concentrations of prednisolone, cited from earlier work.
For data set [4] the following is noted: at the dosage levels employed; cited from earlier work.

Read-outs that look alike come from different tables or passages of the source.

On to `C[C@@H]1C[C@H]2[C@@H]3CCC4=CC(=O)C=C[C@]4(C)[C@@]3(F)[C@@H](O)C[C@]2(C)[C@@]1(O)C(=O)CO` [Dexamethasone, dexamethasone], for which the “Median Imax (%)” value in data set [1] is recorded as 78.0%. Besides, the “Steroid-sensitive (SS) or Steroid-resistant (SR)” value was “SS (steroid-sensitive (Imax>60%; subjects 1-4))” in data set [2] (subject 1); “SS (steroid-sensitive (Imax>60%; subjects 1-4))” in data set [2] (subject 2); “SS (steroid-sensitive (Imax>60%; subjects 1-4))” in data set [2] (subject 3); “SS (steroid-sensitive (Imax>60%; subjects 1-4))” in data set [2] (subject 4); “SR (steroid-resistant (Imax<60%; subjects 5-8))” in data set [2] (subject 5); “SR (steroid-resistant (Imax<60%; subjects 5-8))” in data set [2] (subject 6). For the same compound, the “Steroid-sensitive (SS) or Steroid-resistant (SR)” value in data set [2] (subject 7) and in data set [2] (subject 8) was “SR (steroid-resistant (Imax<60%; subjects 5-8))” each time. For the same compound, the “PHA-stimulated lymphocyte proliferation (cpm)” value in data set [2] (subject 1) amounted to 3100 cpm; in data set [2] (subject 2), 4109 cpm; in data set [2] (subject 3), 9477 cpm; in data set [2] (subject 4) it was 11568 cpm; in data set [2] (subject 5) it was 21685 cpm; in data set [2] (subject 6), 36495 cpm. Besides, the “PHA-stimulated lymphocyte proliferation (cpm)” value in data set [2] (subject 7) was 18669 cpm; in data set [2] (subject 8) it was 24681 cpm. Also, the “% suppression” value in data set [2] (subject 1) is 87%; in data set [2] (subject 2) it was 79%; in data set [2] (subject 3), 65%; in data set [2] (subject 4), 42%; in data set [2] (subject 5), 20%; in data set [2] (subject 6) it was 32%. In addition, the entries for the “% suppression” value in data set [2] (subject 7) and in data set [2] (subject 8) were 29% and 36%, respectively. In addition, the “Imax (%)” value in data set [2] (subject 1) turned out to be 92%; in data set [2] (subject 2), 84%; in data set [2] (subject 3) it was 77%; in data set [2] (subject 4), 64%; in data set [2] (subject 5), 52%; in data set [2] (subject 6), 45%. For the same compound, the “Imax (%)” value came to 35% in data set [2] (subject 7) and 33% in data set [2] (subject 8).

Turning to `CN(Cc1cnc2nc(N)nc(N)c2n1)c1ccc(C(=O)N[C@@H](CCC(=O)O)C(=O)O)cc1` [methotrexate], in the data set with steroid-resistant asthma, the bronchial muscosal inflammation entry is recorded as “reduced” and the lymphocyte steroid sensitivity result was “increased”.

On to `C[C@]12C=CC(=O)C=C1CC[C@@H]1[C@@H]2[C@@H](O)C[C@@]2(C)[C@H]1CC[C@]2(O)C(=O)CO` [prednisolone], for which the “percentage of apoptotic cells” value was 44.8% in data set [3] (lymphocytes of steroid-resistant SLE group) and 68.8% in data set [3] (lymphocytes of steroid-sensitive SLE group).

With daclizumab, the “Side-effects / safety of administration” value in data set [4] is “safe”.

The values above are taken from patent US20090274691A1, “Use of CD25 binding molecules in steroid-resistant patients” (priority 2001, published 2009).
